Values of other authors, collected in patent US8349353B2, “Controlled release cytotoxic agent compositions and methods for the treatment of otic disorders” (Otonomy, Inc., priority 2008, dated 2013).

System: V2-R
Conditions: infusion into the scala tympani

Cc1ccccc1C(=O)Nc1ccc(C(=O)N2CCCC(N(C)C)c3ccccc32)cc1 (stereo not shown) [OPC-31260]
Meniere's disease symptoms: marked reduction of Meniere's disease symptoms
